Source: patent US11931424B2, “Combination MCL-1 inhibitors with anti-body drug conjugates” (Gilead Sciences, Inc., priority 2021, dated 2024)

Tested on: panel of breast cancer cell lines
Assay: Compound A with targeted agents and chemotherapies, 72-hour in vitro proliferation assays
Type: cell-based
Conditions: 72-hour proliferation
[1] = AU565 cell line, compound A × partner
[2] = BT-20 cell line, compound A × partner
[3] = BT-474 cell line, compound A × partner
[4] = BT-549 cell line, compound A × partner
[5] = CAL-51 cell line, compound A × partner
[6] = CAL-85-1 cell line, compound A × partner
[7] = CAL-120 cell line, compound A × partner
[8] = CAL-148 cell line, compound A × partner
[9] = CAMA-1 cell line, compound A × partner
[10] = DU-4475 cell line, compound A × partner
[11] = EVSA-T cell line, compound A × partner
[12] = MCF7 cells, Compound A × partner agent
[13] = MDA-MB-175-VII cells, Compound A × partner agent
[14] = MDA-MB-231 cells, Compound A × partner agent
[15] = MDA-MB-361 cells, Compound A × partner agent
[16] = MDA-MB-436 cells, Compound A × partner agent
[17] = MDA-MB-453 cells, Compound A × partner agent
[18] = MDA-MB-468 cells, Compound A × partner agent
[19] = SK-BR-3 cells, Compound A × partner agent
[20] = SUM159PT cells, combination of compound A with the named agent
[21] = T47D cells, combination of compound A with the named agent
[22] = ZR-75-1 cells, combination of compound A with the named agent
[23] = ZR-75-30 cells, combination of compound A with the named agent

SMILES: C[C@]12CC[C@@H]3c4ccc(O)cc4C[C@@H](CCCCCCCCC[S+]([O-])CCCC(F)(F)C(F)(F)F)[C@H]3[C@@H]1CC[C@@H]2O (stereo partly drawn) [Fulvestrant]
- Bliss Volume [1]: 6.82
- HSA volume [1]: 2.40
- Loewe Volume [1]: 4.57
- Synergy Score [1]: 3.43
- Bliss Volume [2]: 3.55
- HSA volume [2]: 3.62
- Loewe Volume [2]: 3.44
- Synergy Score [2]: 8.19
- Bliss Volume [3]: 2.68
- HSA volume [3]: 1.47
- Loewe Volume [3]: 1.42
- Synergy Score [3]: 6.48
- Bliss Volume [4]: 3.56
- HSA volume [4]: 7.74
- Loewe Volume [4]: 7.73
- Synergy Score [4]: 6.08
- Bliss Volume [5]: 0.71
- HSA volume [5]: −1.89
- Loewe Volume [5]: 0.82
- Synergy Score [5]: 0.47
- Bliss Volume [6]: −4.57
- HSA volume [6]: −0.20
- Loewe Volume [6]: −0.68
- Synergy Score [6]: 2.63
- Bliss Volume [7]: −4.96
- HSA volume [7]: −4.48
- Loewe Volume [7]: −4.09
- Synergy Score [7]: 0.28
- Bliss Volume [8]: −1.80
- HSA volume [8]: −2.13
- Loewe Volume [8]: −0.78
- Synergy Score [8]: 4.58
- Bliss Volume [9]: 4.38
- HSA volume [9]: −0.63
- Loewe Volume [9]: −0.83
- Synergy Score [9]: 2.09
- Bliss Volume [10]: 4.93
- HSA volume [10]: 0.13
- Loewe Volume [10]: 4.51
- Synergy Score [10]: 2.58
- Bliss Volume [11]: 6.75
- HSA volume [11]: 1.08
- Loewe Volume [11]: 1.59
- Synergy Score [11]: 3.72
- Bliss Volume (HCC38, compound A × partner): −3.19
- HSA volume (HCC38, compound A × partner): −1.37
- Loewe Volume (HCC38, compound A × partner): −1.82
- Synergy Score (HCC38, compound A × partner): 2.63
- Bliss Volume (HCC70, compound A × partner): 10.34
- HSA volume (HCC70, compound A × partner): 9.70
- Loewe Volume (HCC70, compound A × partner): 10.67
- Synergy Score (HCC70, compound A × partner): 17.18
- Bliss Volume (HCC1143, compound A × partner): 0.82
- HSA volume (HCC1143, compound A × partner): −4.16
- Loewe Volume (HCC1143, compound A × partner): 0.02
- Synergy Score (HCC1143, compound A × partner): 2.79
- Bliss Volume (HCC1569, compound A × partner): 3.84
- HSA volume (HCC1569, compound A × partner): 4.70
- Loewe Volume (HCC1569, compound A × partner): 5.59
- Synergy Score (HCC1569, compound A × partner): 5.92
- Bliss Volume (HCC1806, compound A × partner): −0.20
- HSA volume (HCC1806, compound A × partner): −0.86
- Loewe Volume (HCC1806, compound A × partner): 1.90
- Synergy Score (HCC1806, compound A × partner): 2.60
- Bliss Volume (HCC1937, compound A × partner): 2.31
- HSA volume (HCC1937, compound A × partner): −0.65
- Loewe Volume (HCC1937, compound A × partner): 2.38
- Synergy Score (HCC1937, compound A × partner): 2.38
- Bliss Volume (HCC1954, compound A × partner): 11.35
- HSA volume (HCC1954, compound A × partner): 12.18
- Loewe Volume (HCC1954, compound A × partner): 11.84
- Synergy Score (HCC1954, compound A × partner): 16.73
- Bliss Volume (HCC2218, compound A × partner): 1.16
- HSA volume (HCC2218, compound A × partner): 1.89
- Loewe Volume (HCC2218, compound A × partner): −1.02
- Synergy Score (HCC2218, compound A × partner): 3.85
- Bliss Volume (HDQ-P1, compound A × partner): −5.92
- HSA volume (HDQ-P1, compound A × partner): −6.15
- Loewe Volume (HDQ-P1, compound A × partner): −5.56
- Synergy Score (HDQ-P1, compound A × partner): 0.42
- Bliss Volume (HMC-1-8, compound A × partner): 10.58
- HSA volume (HMC-1-8, compound A × partner): 7.21
- Loewe Volume (HMC-1-8, compound A × partner): 7.81
- Synergy Score (HMC-1-8, compound A × partner): 13.30
- Bliss Volume (JIMT-1, compound A × partner): 5.80
- HSA volume (JIMT-1, compound A × partner): 0.54
- Loewe Volume (JIMT-1, compound A × partner): 4.52
- Synergy Score (JIMT-1, compound A × partner): 1.26
- Bliss Volume (KPL-1, compound A × partner): 0.30
- HSA volume (KPL-1, compound A × partner): 1.12
- Loewe Volume (KPL-1, compound A × partner): 1.04
- Synergy Score (KPL-1, compound A × partner): 2.75
- Bliss Volume [12]: 11.46
- HSA volume [12]: 11.54
- Loewe Volume [12]: 11.41
- Bliss Volume [13]: 11.56
- HSA volume [13]: 1.65
- Loewe Volume [13]: 10.58
- Synergy Score [13]: 7.62
- Bliss Volume [14]: 1.26
- HSA volume [14]: −0.76
- Loewe Volume [14]: 1.50
- Synergy Score [14]: 1.17
- Bliss Volume [15]: −3.29
- HSA volume [15]: −1.23
- Loewe Volume [15]: −0.47
- Synergy Score [15]: 3.34
- Bliss Volume [16]: 1.52
- HSA volume [16]: 2.87
- Loewe Volume [16]: 2.94
- Synergy Score [16]: 3.30
- Bliss Volume [17]: −0.77
- HSA volume [17]: −3.96
- Loewe Volume [17]: −1.85
- Synergy Score [17]: 4.79
- Bliss Volume [18]: 6.94
- HSA volume [18]: 6.17
- Loewe Volume [18]: 7.22
- Bliss Volume [19]: −2.14
- HSA volume [19]: −3.78
- Loewe Volume [19]: −2.67
- Synergy Score [19]: 2.05
- Bliss Volume [20]: 2.51
- HSA volume [20]: 0.14
- Loewe Volume [20]: 2.16
- Synergy Score [20]: 1.23
- Bliss Volume [21]: 0.17
- HSA volume [21]: 2.12
- Loewe Volume [21]: 3.30
- Synergy Score [21]: 4.16
- Bliss Volume [22]: 5.80
- HSA volume [22]: 4.00
- Loewe Volume [22]: 6.17
- Synergy Score [22]: 4.22
- Bliss Volume [23]: 1.91
- HSA volume [23]: 1.18
- Loewe Volume [23]: 1.80
- Synergy Score [23]: 4.50
